Test results reported in patent US20090186915A1, “Compositions and methods for treatment of glioblastoma, gliosarcoma, NSCLC, and head and neck cancer” (Unibioscreen S. A., priority 2006, published 2009).
Read-outs that look alike come from different tables or passages of the source.

Experiments:
[1] = tested on: HCT-15; assay: MTT colorimetric assay, HCT-15 cells; format: cell-based; conditions: Homo sapiens, 72 h, 3 days of culturing, mean of six determinations, read-out: IC50 (μM) In Vitro Growth Inhibition
Procedure: (§1) The overall growth of human cancer cell lines was determined by means of the calorimetric MTT (3-[4,5-dimethylthiazol-2-yl]-diphenyl tetrazolium bromide; Sigma) assay, as detailed previously.

[2] = tested on: U-373MG; assay: MTT overall cell growth, U-373MG cells; format: cell-based; conditions: Homo sapiens
Procedure: Tests were performed in order to rapidly, i.e. within 5 days, measure the effect of the compound of example 2 on the overall cell growth. The test measures the number of metabolically active living cells that are able to transform the yellow product 3-(4,5-dimethylthiazol-2-yl)-2,5-diphenyl tetrazolium bromide (herein referred as MTT) into the blue product formazan dye by mitochondrial reduction. The amount of formazan obtained at the end of the experiment, measured by means of a spectrophotometer, is directly proportional to the number of living cells. Optical density determination thus enables a quantitative measurement of the effect of the investigated compounds as compared to the control condition (untreated cells) and/or to other reference compounds.
Six human cancer cell lines described in table 1 were used in the following MTT tests. These cell lines cover six histological cancer types, being prostate, glioma, pancreas, colon, lung and breast cancers. Cells were allowed to grow in 96 well micro-wells with a flat bottom with an amount of 100 μl of cell suspension per well with 1,000 to 4,000 cells/well depending on the cell type used. Each cell line was seeded in a well known MEM 10% serum culture medium. […]
After 72 hours of incubation at 37° C. with (experimental conditions) or without (control condition) the compound to be tested, the medium was replaced by 100 μl MTT dissolved in RPMI (1640 without phenol red) at a concentration of 1 mg/ml. […] The micro-wells were shaken for 5 minutes and read on a spectrophotometer at wavelengths of 570 nm (maximum formazan absorbance) and 630 nm (back-ground noise).
For each experimental condition, the mean optical density was calculated, as well as the percentage of remaining living cells in comparison with the control.
as §1

[3] = tested on: Rb, pRb; assay: Western blot of Rb and p-Rb, PC-3; format: cell-based, human; conditions: 10 μM, 48 and 72 hours
Procedure: Cell extracts were prepared by the lysis of subconfluent PC-3 cells directly in boiling lysis buffer (10 mM Tris, pH 7.4, 1 mM Na3O4V, 1% SDS, pH 7.4). Approximately 40 μg of extracted proteins (evaluated by the bicinchoninic acid protein assay; Pierce, Perbio Science, Erembodegem, Belgium) was then loaded onto a denaturing polyacrylamide gel. The proteins submitted to Western blot analyses were detected using primary antibodies provided by: 1) CST Technologies, Bioké, Leiden, The Netherlands: Rb (1:2000) and p-Rb (1:1000); 2) BD Transduction Laboratories, Erembodegem, Belgium: E2F1 (1:400); and 3) AbCam, Cambridge, UK: tubulin (1:3000, used as a loading control). The antibody for LC-3 protein (1:500) was kindly provided by Dr. Yasuko Kondo. Western blot analyses were performed as detailed previously.

[4] = tested on: PC-3; assay: Apoptosis by Annexin V flow cytometry, PC-3; format: cell-based, human
Procedure: We used flow cytometry (according to the protocol found in Mijatovic et al. Neoplasia 2006) to determine the percentages of PC-3 and DU-145 positive cells for both Annexin V and propidium iodide and we observed that a maximum of 10% only of PC-3 or DU-145 cells underwent apoptotic processes following a treatment with 10 μM of the compound produced according to example 2 or example 7.
The determination of the percentage of cells undergoing apoptosis was performed using an Annexin V-FITC Apoptosis Detection Kit (Sigma) following the manufacturer's instructions. Each sample was evaluated in triplicate.

[5] = tested on: GM-CFC; assay: HALO hematotoxicity assay, human GM-CFC; format: cell-based; conditions: 7 days culture, iATP
Procedure: (§2) Investigation of the hematotoxic potential of UNBS5162 was undertaken by HemoGenix (Colorado Springs, Colo.). The effects of UNBS5162 on stem and progenitor cell populations from murine and human bone marrow were assessed using HALO (Hematopoietic/Hematotoxicity Assay through Luminescence Output) technology. Stem and hematopoietic progenitor cell populations were isolated from mouse and human bone marrow samples, plated at a concentration of 1.0×10^4 cells/well and cultured for 5 and 7 days, respectively, in the presence of growth factors and increasing concentrations of UNBS5162 ranging from 0.5 nM to 50 μM. The proliferative or growth potential of cell populations was determined from intracellular ATP (iATP) concentrations and a luciferin/luciferase bioluminescence signal detection system. All samples were assayed in eight replicates. The results are presented as estimated inhibitory concentration (IC) values.

[6] = tested on: DU-145; assay: Quantitative videomicroscopy, DU-145; format: cell-based, human; conditions: 1 μM
Procedure: Use was made of computer-assisted phase-contrast microscopy (quantitative videomicroscopy) in the attempt to elucidate an overall picture of UNBS5162's mechanism of action. […] In addition, 10 μM UNBS5162 caused a marked enlargement in PC-3 cells by the end of the 6-day treatment period compared with the start of the experiment.

[7] = tested on: DU-145; assay: Cell cycle kinetics by flow cytometry (PI), DU-145; format: cell-based, human; conditions: 1 μM
Procedure: The cell cycle kinetics of prostate cancer cells left untreated or incubated with UNBS5162 were determined by flow cytometry analysis of propidium iodide (PI) nuclear staining, using previously detailed methodology. Each sample was evaluated in triplicate. Flow cytometry was undertaken using an Epics XL.MCL flow cytometer and the FACScan/CellQuest software system (Becton Dickinson, Miami, Fla.).

[8] = tested on: PC-3; assay: Lysosomal membrane permeabilization (LMP), PC-3; format: cell-based, human; conditions: 72 hours, 1 μM or 10 μM
Text: It is well known that lysosomes control cell death at several levels. In response to endogenous or exogenous stress (including chemotherapy), lysosomal membrane permeabilization (LMP) can occur, leading to the release of catabolic hydrolases that can mediate caspase-dependent apoptosis, caspase-independent apoptosis-like cell death or even necrosis following high levels of LMP.

[9] = tested on: GM-CFC; assay: HALO hematotoxicity assay, mouse GM-CFC; format: cell-based; conditions: 5 days culture, iATP
Procedure: as §2

SMILES: CN(C)CCN1C(=O)c2cccc3cc(NC(N)=O)cc(c23)C1=O [UNBS5162, N-{2-[2-(dimethylamino)ethyl]-1,3-dioxo-2,3-dihydro-1H-benzo[de]isoquinolin-5-yl}urea]
- IC50 [1]: 28.8 µM
- IC50 ([2]; 72 h, U373-MG, 3 days of culturing, mean of six determinations, read-out: IC50 (μM) In Vitro Growth Inhibition): 4.7 µM
- IC50 ([2]; U373 MG, U-373MG, 72 hours incubation, range of molar concentrations, read-out: IC50): 5 to 10 µM
- Rb protein expression [3]: completely abolished Rb protein expression
- cells undergoing apoptotic processes (Annexin V and propidium iodide positive) ([4]; 10 μM): ≤ 10%
- induction of real (early) apoptosis ([4]; flow cytometry): does not induce real (early) apoptosis
- IC50 ([5]; 168 h): 3.74 µM
- IC90 ([5]; 168 h): 19.9 µM
- IC75 [5]: 8.12 µM
- cell dynamics (videomicroscopy) [6]: induced no detectable changes
- cell cycle kinetics [7]: did not significantly (P>0.05) modify
- lysosomal membrane permeabilization (LMP) [8]: no LMP
- IC50 ([9]; 120 h): 7.04 µM
- IC90 ([9]; 120 h): 12 µM
- IC75 [9]: 9.09 µM
